From US12649723B2, “Carbonohydrazonoyl dicyanide compounds comprising 2 or more aryl or heteroaryl connected via linker and use thereof” (KOREA INSTITUTE OF SCIENCE AND TECHNOLOGY, priority 2020, dated 2026)

What was measured:
[1] = Liver microsome stability; assay type: in vitro ADME, dog; details: amount of substrate remaining; compound 1 μM, 30 minutes, 37° C., NADPH
Description: (§1) The stability of liver microsomes due to the compounds prepared according to Examples 1 to 175 was confirmed. Specifically, four types of liver microsomes (human, dog, rat, and mouse, each 0.25 mg/mL), a 0.1 M phosphate buffer solution (pH 7.4), and each of the compounds at a concentration of 1 μM were mixed and pre-cultured at 37° C. for 5 minutes and further cultured at 37° C. for 30 minutes together with an NADPH generation system solution added thereto. Thereafter, the reaction was terminated by adding an acetonitrile solution containing an internal standard material (chloropropamide) and centrifuged for 5 minutes (14,000 rpm, 4° C.), and then a supernatant was injected into an LC-MS/MS system for analysis of substrate drugs to thereby evaluate metabolic stability due to 8 types of compounds.
(§2) The amount of the substrate remaining after the reaction was analyzed using the Shimadzu Nexera XR system and TSQ Vantage (Thermo). In an HPLC column, Kinetex XB-C18 (2.1 mm×100 mm, particle size of 2.6 μm; Phenomenex, USA) was used, and mobile phases were (A) distilled water containing 0.1% formic acid and (B) acetonitrile containing 0.1% formic acid. Analyst software (version 1.6.3) and Xcalibur (version 1.6.1) were used for data analysis.

[2] = target: T1, CYP2C19 (Homo sapiens, UniProt P33261); test: Inhibitory effect on CYP coenzyme activity, human liver microsomes; assay type: in vitro ADME; details: compound 10 μM; human liver microsomes 0.25 mg/mL; substrate S-mephenytoin; 15 minutes
T1 construct: human liver microsomes (0.25 mg/mL); from tissue; host or cells: human liver microsomes
T1 sequence (P33261 whole entry): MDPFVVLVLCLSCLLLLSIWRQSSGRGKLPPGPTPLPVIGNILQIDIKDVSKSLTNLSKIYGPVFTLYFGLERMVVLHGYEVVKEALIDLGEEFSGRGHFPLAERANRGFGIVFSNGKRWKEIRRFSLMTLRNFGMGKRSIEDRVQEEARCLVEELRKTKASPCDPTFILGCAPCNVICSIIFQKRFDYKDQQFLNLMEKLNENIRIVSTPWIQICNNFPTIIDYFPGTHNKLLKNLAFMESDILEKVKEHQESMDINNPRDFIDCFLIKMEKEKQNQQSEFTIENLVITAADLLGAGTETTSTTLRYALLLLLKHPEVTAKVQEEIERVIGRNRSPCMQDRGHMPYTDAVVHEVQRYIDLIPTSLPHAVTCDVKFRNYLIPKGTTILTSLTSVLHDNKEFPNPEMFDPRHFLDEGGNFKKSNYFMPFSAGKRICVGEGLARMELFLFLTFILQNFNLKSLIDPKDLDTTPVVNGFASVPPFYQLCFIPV
Description: (§3) The inhibitory effects of the compounds prepared according to Examples 1 to 175 on CYP coenzyme activity were identified. Specifically, human liver microsomes (0.25 mg/mL), a 0.1 M phosphate buffer solution (pH 7.4), a substrate drug cocktail of five types of drug metabolism enzymes (50 μM phenacetin, 10 μM diclofenac, 100 μM S-mephenytoin, 5 μM dextromethorphan, and 2.5 μM midazolam), and the compound at a concentration of 0 μM or 10 μM were mixed and pre-cultured at 37° C. for 5 minutes, and then further cultured at 37° C. for 15 minutes together with an NADPH generation system solution added thereto. Thereafter, the reaction was terminated by adding an acetonitrile solution containing an internal standard material (terfenadine) and centrifuged for 5 minutes (14,000 rpm, 4° C.), and then a supernatant was injected into an LC-MS/MS system for simultaneous analysis of metabolites of the substrate drugs to thereby evaluate the inhibitory effects on drug metabolism.
(§4) Metabolites of each CYP coenzyme indicator drug generated through the reaction were analyzed using the Shimadzu Nexera XR system and TSQ Vantage (Thermo). In an HPLC column, Kinetex C18 (2.1 mm×100 mm, 2.6 μm, particle size; Phenomenex, USA) was used, and mobile phases were (A) distilled water containing 0.1% formic acid and (B) acetonitrile containing 0.1% formic acid, and a gradient program shown in Table 3 was applied thereto.
(§5) The generated metabolites were quantified using a multiple reaction monitoring (MRM) quantification mode, and Xcalibur (version 1.6.1) was used for data analysis. Inhibitory effects of the novel compound prepared according to the examples of the present invention on CYP coenzyme activity are shown in Table 4 below.

[3] = target: T2, CYP2D6 (Homo sapiens, UniProt P10635); test: as above; assay type: in vitro ADME; details: compound 10 μM; human liver microsomes 0.25 mg/mL; substrate dextromethorphan; 15 minutes
T2 construct: human liver microsomes (0.25 mg/mL); from tissue; host or cells: human liver microsomes
T2 sequence (P10635 whole entry): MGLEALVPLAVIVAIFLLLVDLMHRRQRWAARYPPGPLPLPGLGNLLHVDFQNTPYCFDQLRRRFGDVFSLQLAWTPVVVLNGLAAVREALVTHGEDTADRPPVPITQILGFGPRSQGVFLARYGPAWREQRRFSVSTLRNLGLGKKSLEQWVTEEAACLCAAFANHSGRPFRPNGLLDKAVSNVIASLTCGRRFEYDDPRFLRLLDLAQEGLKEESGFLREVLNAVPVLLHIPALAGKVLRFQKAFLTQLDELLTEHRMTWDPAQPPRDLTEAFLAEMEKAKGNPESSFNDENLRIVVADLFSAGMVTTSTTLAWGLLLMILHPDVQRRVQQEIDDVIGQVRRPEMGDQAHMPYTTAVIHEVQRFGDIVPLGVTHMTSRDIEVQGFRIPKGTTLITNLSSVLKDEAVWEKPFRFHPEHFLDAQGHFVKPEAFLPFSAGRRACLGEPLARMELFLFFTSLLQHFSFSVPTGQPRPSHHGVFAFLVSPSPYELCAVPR
Description: as §3, §4, §5

[4] = target: T3, CYP2C9 (Homo sapiens, UniProt P11712); test: as above; assay type: in vitro ADME; details: compound 10 μM; human liver microsomes 0.25 mg/mL; substrate diclofenac; 15 minutes
T3 construct: human liver microsomes (0.25 mg/mL); from tissue; host or cells: human liver microsomes
T3 sequence (P11712 whole entry): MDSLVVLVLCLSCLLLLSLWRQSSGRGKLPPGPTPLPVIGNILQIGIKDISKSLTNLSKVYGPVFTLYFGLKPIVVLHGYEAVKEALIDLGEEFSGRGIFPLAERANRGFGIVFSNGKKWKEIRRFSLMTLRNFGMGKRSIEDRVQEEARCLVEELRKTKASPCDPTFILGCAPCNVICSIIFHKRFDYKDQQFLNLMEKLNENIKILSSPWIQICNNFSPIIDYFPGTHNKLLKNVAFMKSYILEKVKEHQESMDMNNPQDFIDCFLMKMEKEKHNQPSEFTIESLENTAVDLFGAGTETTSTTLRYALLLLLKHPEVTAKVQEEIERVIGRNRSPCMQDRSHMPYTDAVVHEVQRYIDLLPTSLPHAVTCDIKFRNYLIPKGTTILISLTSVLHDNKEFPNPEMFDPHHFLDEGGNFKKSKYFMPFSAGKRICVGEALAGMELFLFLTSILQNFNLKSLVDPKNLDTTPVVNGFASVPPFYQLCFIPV
Description: as §3, §4, §5

[5] = target: T4, CYP3A4 (Homo sapiens, UniProt P08684); test: as above; assay type: in vitro ADME; details: compound 10 μM; human liver microsomes 0.25 mg/mL; substrate midazolam; 15 minutes
T4 construct: human liver microsomes (0.25 mg/mL); from tissue; host or cells: human liver microsomes
T4 sequence (P08684 whole entry): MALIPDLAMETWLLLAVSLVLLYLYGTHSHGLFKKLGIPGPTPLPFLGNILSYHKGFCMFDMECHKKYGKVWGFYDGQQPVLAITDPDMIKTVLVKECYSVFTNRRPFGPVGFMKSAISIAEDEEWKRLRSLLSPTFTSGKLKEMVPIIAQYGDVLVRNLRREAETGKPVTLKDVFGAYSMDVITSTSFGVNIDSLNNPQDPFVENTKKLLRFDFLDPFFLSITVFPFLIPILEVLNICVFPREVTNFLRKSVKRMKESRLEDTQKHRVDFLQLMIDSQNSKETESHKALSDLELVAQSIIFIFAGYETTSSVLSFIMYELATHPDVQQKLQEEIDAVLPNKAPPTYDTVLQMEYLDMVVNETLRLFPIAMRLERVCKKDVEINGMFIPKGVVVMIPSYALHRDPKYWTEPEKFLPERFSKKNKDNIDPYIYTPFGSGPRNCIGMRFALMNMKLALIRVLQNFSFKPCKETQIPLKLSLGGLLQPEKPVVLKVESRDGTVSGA
Description: as §3, §4, §5

[6] = target: T5, CYP1A2 (Homo sapiens, UniProt P05177); test: as above; assay type: in vitro ADME; details: compound 10 μM; human liver microsomes 0.25 mg/mL; substrate phenacetin; 15 minutes
T5 construct: human liver microsomes (0.25 mg/mL); from tissue; host or cells: human liver microsomes
T5 sequence (P05177 1-516): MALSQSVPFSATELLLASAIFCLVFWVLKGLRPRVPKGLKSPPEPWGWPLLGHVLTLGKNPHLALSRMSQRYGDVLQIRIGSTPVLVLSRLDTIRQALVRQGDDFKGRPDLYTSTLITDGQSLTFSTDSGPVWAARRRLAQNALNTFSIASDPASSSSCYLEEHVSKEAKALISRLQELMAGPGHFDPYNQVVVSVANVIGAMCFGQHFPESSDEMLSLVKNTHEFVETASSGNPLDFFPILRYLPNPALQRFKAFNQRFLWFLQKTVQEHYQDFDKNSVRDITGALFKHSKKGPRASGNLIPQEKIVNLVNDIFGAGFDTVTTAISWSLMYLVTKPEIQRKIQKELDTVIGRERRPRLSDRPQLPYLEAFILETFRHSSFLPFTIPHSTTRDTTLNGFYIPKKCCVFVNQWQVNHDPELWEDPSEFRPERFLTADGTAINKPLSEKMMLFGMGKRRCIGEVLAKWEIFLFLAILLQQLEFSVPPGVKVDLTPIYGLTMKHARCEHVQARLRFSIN
Description: as §3, §4, §5

[7] = Liver microsome stability; assay type: in vitro ADME, rat; details: amount of substrate remaining; compound 1 μM, 30 minutes, 37° C., NADPH
Description: as §1, §2

[8] = Liver microsome stability; assay type: in vitro ADME, mouse; details: amount of substrate remaining; compound 1 μM, 30 minutes, 37° C., NADPH
Description: as §1, §2

[9] = system: Tau-BiFC cells; test: Cell viability (cytotoxicity) in tau-BiFC cells, count of stained nuclei; assay type: cell-based; details: Forskolin-only group = 100% cell viability; for Cell viability (% @10 μM): compound 10 μM; for Cell viability: compounds marked *: measured at 3 μM
In short: (§6)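 Aggregation was induced by 30 μM Forskolin co-applied with test compound for 48 h, with screening at 1, 3, 10 μM and dose-response at 0.03–30 μM. Nuclei were stained with Hoechst (2 μg/mL) and counted against Forskolin-only wells for cytotoxicity. Inhibition came from BiFC fluorescence relative to Forskolin-only versus untreated cells, with IC50 by nonlinear regression.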

[10] = Liver microsome stability; assay type: in vitro ADME, human; details: amount of substrate remaining; compound 1 μM, 30 minutes, 37° C., NADPH
Description: as §1, §2

[11] = target: T6, tau protein (Homo sapiens, UniProt P10636); test: Tau-BiFC cell model: inhibition of tau protein aggregation; assay type: cell-based; details: for remaining activity at 10 µM / remaining activity at 3 µM: 48 h, Forskolin-only group = 100% tau protein-aggregated state; for remaining activity at 10 µM: compound 10 μM, BiFC fluorescence, read-out: Response (% @10 μM); for IC50: Tau BiFC in cells, with Forskolin 30 μM, 48 hours; for remaining activity at 3 µM: compounds marked *: measured at 3 μM, read-out: Response
T6 construct: fused on or other part: Split fluorescent-protein halves for BiFC are fused to tau; In the published tau-BiFC line these are Venus VN173 and VC155
T6 sequence (P10636 2-441 isoform P10636-8 limits assumed): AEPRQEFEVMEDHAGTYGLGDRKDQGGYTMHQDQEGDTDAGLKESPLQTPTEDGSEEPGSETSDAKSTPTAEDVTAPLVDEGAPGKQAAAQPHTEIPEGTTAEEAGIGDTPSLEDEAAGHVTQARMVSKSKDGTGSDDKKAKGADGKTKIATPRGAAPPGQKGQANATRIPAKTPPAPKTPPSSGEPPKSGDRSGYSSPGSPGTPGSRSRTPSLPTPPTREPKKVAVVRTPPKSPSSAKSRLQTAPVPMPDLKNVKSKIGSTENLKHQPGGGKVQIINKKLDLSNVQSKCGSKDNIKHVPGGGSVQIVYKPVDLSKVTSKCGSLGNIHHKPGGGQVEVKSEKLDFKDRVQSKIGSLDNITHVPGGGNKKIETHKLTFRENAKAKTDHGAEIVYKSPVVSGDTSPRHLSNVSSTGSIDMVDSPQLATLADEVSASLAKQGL
In short: as §6

| SMILES | Dog (%) [1] | CYP2C19 [2] | CYP2D6 [3] | CYP2C9 [4] | CYP3A4 [5] | CYP1A2 [6] | Rat (%) [7] | Mouse (%) [8] | Cell viability (% @10 μM) [9] | Human (%) [10] | remaining activity at 10 µM [11] | IC50 [11] | Cell viability [9] | remaining activity at 3 µM [11] |
| --- | --- | --- | --- | --- | --- | --- | --- | --- | --- | --- | --- | --- | --- | --- |
| Cc1cnc(C(=O)Nc2ccc(NN=C(C#N)C#N)cn2)cn1 [Compound 1, (6-(5-methylpyrazine-2-carboxamido)pyridin-3-yl)carbonohydrazonoyl dicyanide] | 66.9% | 74.6 | 93.1 | 71.1 | 85 | 80.7 | 56.7% | 21.2% | 94.3% | 86.5% | 0% | 0.4 µM |  |  |
| N#CC(C#N)=NNc1ccc(NC(=O)c2cccc(C(F)(F)F)c2)nc1 [Compound 26, (6-(3-(trifluoromethyl)benzamido)pyridin-3-yl)carbonohydrazonoyl dicyanide] | 29.8% |  |  |  |  |  | 19.8% | 7.1% | 109.8% | 72.5% | 0% | 0.71 µM |  |  |
| N#CC(C#N)=NNc1ccc(Oc2ccccc2)nc1 [Compound 68, (6-phenoxypyridin-3-yl)carbonohydrazonoyl dicyanide] | 87.8% |  |  |  |  |  | 63% | 93.6% | 117% | 6.7% | 0% | 0.11 µM |  |  |
| N#CC(C#N)=NNc1ccc(Oc2cccc(F)c2)nc1 [Compound 69, (6-(3-fluorophenoxy)pyridin-3-yl)carbonohydrazonoyl dicyanide] | 94.8% |  |  |  |  |  | 75.6% | 81.6% | 119.4% | 8.4% | 0% | 0.26 µM |  |  |
| N#CC(C#N)=NNc1ccc(NC(=O)c2ccoc2)nc1 [Compound 110, (6-(furan-3-carboxamido)pyridin-3-yl)carbonohydrazonoyl dicyanide] |  | 88.4 | 91.3 | 77.1 | 98.9 | 88.3 | 81.8% | 92.4% | 160.5% | 89.7% | 0% | 0.79 µM |  |  |
| Cc1cc(NN=C(C#N)C#N)ccc1OCc1ncccn1 [Compound 143, (3-methyl-4-(pyrimidin-2-ylmethoxy)phenyl)carbonohydrazonoyl dicyanide] |  | >100 | >100 | >100 | 90.3 | 95.9 | 57.6% | 50% |  | 78.3% |  |  | 125% | 11% |
| Cc1cc(NN=C(C#N)C#N)ccc1OCc1cnccn1 [Compound 144, (3-methyl-4-(pyrazin-2-ylmethoxy)phenyl)carbonohydrazonoyl dicyanide] |  | >100 | >100 | 24.5 | 89.2 | 37.7 | 92.4% | 80.9% |  | 74.9% |  | 1.28 µM | 111% | -20% |
| Cc1cc(NN=C(C#N)C#N)ccc1OCc1cccnc1 [Compound 145, (3-methyl-4-(pyridin-3-ylmethoxy)phenyl)carbonohydrazonoyl dicyanide] |  | 46.5 | 39.1 | 2.2 | 22 | 5.3 | 91.2% | 93.3% |  | 93.7% |  | 0.126 µM | 95% | -49% |
| Cc1cc(NN=C(C#N)C#N)ccc1OCc1nc2ccccc2[nH]1 [Compound 146, (4-((1H-benzo[d]imidazol-2-yl)methoxy)-3-methylphenyl)carbonohydrazonoyl dicyanide] |  | 88.4 | >100 | 47.2 | 82.7 | >100 | 31.1% | 70.5% |  | 64.6% |  | 0.444 µM | 133% | -35% |
| Cc1cc(NN=C(C#N)C#N)ccc1OCc1cscn1 [Compound 152, (3-methyl-4-(thiazol-4-ylmethoxy)phenyl)carbonohydrazonoyl dicyanide] |  | 95 | 96.1 | 17.2 | >100 | 75.5 | 72.3% | 56.6% |  | 73.2% |  | 0.054 µM | 117% | -37% |
| Cc1cc(NN=C(C#N)C#N)ccc1OCc1nc2ccccc2o1 [Compound 156, (4-(benzo[d]oxazol-2-ylmethoxy)-3-methylphenyl)carbonohydrazonoyl dicyanide] |  | 83.7 | 96 | 54 | 92.6 | 95.9 | 55.5% | 41.3% |  | 49.3% |  | 0.05 µM | 124% | -29% |
